Data taken from patent publication US5610310A, “Cyclic lipid derivatives as potent PAF antagonists” (Pohang Iron & Steel Co., Ltd, priority 1995, dated 1997).

Legend:
[1] = test system: PAF-induced [^14 C]-serotonin release, rabbit platelets; assay: Inhibitory action on PAF-induced [^14 C]-serotonin release; type: cell-based, rabbit (New Zealand white); conditions: Oryctolagus cuniculus, Platelet, PAF 1×10^-9 M; for inhibition at 0.05 µM: test compound 5 × 10^-8 M; for inhibition at 0.2 µM: test compound 2 × 10^-7 M; for inhibition at 0.005 µM: test compound 5 × 10^-9 M
Procedure: Inhibitory action on PAF-induced [^14 C]-serotonin release
Blood was collected from the hearts of conscious New Zealand white male rabbits weighing 2 to 3 kg. The blood was immediately subjected to a centrifuge at 1400 rpm for 10 minutes to obtain platelet rich plasma(PRP).PRP was incubated with a trace mount of [^14 C]-serotonin for 20 minutes at 22° C. Prelabelled platelets were prepared by centrifugation at 3500 rpm for 10 minutes. The test compound was added to 80 μl of [^14 C] serotonin-labeled platelets in plastic test tubes, and the mixture was incubated for 2 minutes. PAF (1×10^-9 M) was then added to the reaction mixture and incubated for additional 2 minutes at which time 10 μl of cold formaldehyde was added to stop the reactions. The tubes were immediately cooled to 4° C. and centrifuged at 12000 rpm for 2 minutes. The supernatants (80 μl) were assayed for percentage of [^14 C] serotonin release by the conventional methods of measuring ^14 C counts.

[2] = test system: PAF-induced platelet aggregation, rabbit platelet-rich plasma; assay: Inhibitory action on PAF-induced platelet aggregation; type: cell-based, rabbit (New Zealand white); conditions: Oryctolagus cuniculus, rabbit PRP, PAF 5×10^-9 M, 37° C.
Procedure: Inhibitory action on PAF-induced platelet aggregation Blood was collected from the […] of conscious New Zealand white male rabbits weighing 2 to 3 kg using citric acid as an anticoagulant (one volume pan of 3% citric acid relative to 9 volume parts of the whole blood). […] PRP was diluted with PPP to adjust the number of platelets to about 3×10^5 /μl. […] Platelet aggregation was then examined by means of turbidimetry [Born, Nature, 194, 927(1962)] with dual channel aggegometer (Chrono-Log. Corp., Havertown, Pa.). As the control, physiological saline without test sample was used. The platelet aggregation inhibiting activities of the test sample are expressed as IC50, that is the concentration of the compound at which 50% of the aggregation is inhibited.

[3] = molecular target: T1, PAF receptor (rabbit platelet membranes) (Oryctolagus cuniculus, UniProt G1TEI7); assay: PAF Receptor Binding Assay; conditions: 0.6 nM [^3 H]C18 -PAF, 60 minutes, room temperature, calculated as IC50/2
T1 construct: Rabbit platelets were prepared by centrifugation and washing; tissue Pel-Freez (Rogers, AR); host or cells: rabbit platelets (washed, from citrated whole blood; lysed membranes)
T1 sequence (G1TEI7 1-342): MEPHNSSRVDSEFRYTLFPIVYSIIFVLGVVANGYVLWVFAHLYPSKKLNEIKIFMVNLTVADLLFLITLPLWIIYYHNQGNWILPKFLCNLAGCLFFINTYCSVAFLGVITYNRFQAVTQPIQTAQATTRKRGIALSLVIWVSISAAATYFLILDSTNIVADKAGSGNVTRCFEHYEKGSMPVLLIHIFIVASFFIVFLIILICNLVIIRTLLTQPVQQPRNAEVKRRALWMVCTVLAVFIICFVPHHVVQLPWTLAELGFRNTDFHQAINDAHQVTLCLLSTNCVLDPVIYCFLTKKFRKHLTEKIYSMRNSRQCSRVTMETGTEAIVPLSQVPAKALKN
Procedure: PAF Receptor Binding Assay Citrated whole rabbit blood was obtained from Pel-Freez(Rogers, AR). Rabbit platelets were prepared by centrifugation and washing. The platelets were lysed by freeze-thawing and sonification; Platelet membranes were prepared by centrifugation and washing. Final membrane preparation were stored frozen in 10 mM Tris/5 mM MgCl2 /2 mM EDTA (TME buffer, pH 7.0) with 0.25M sucrose added for membrane stabilization. […] The final volume of the assay was 100 μl. […] The […] and removed. The bound radioactivity was quantitated with a Berthold TLC-Linear Analyzer model LB2842. […] Experiments were repeated at least once. […] Ki values of inhibitory binding constants were calculated according to the methods of the literature[Cheng et al., Biochem.

| Compound | inhibition at 0.05 µM [1] [%] | IC50 [2] [µM] | Ki [3] [µM] | inhibition at 0.2 µM [1] [%] | inhibition at 0.005 µM [1] [%] |
| --- | --- | --- | --- | --- | --- |
| CCCCCCCCCCCCCCCCOC[C@H]1C[C@@H](COC(=O)N(Cc2cccc[n+]2CC)C(C)=O)O1 (relative stereo) [Example 1, cis-2-[[N-Acetyl-N-[[[2-[(hexadecyloxy)methyl]-4-oxetanyl]methoxy]carbonyl]amino]methyl]-1-ethyl-pyridinium iodide] | 51 | 0.095 | 0.0212 |  |  |
| CCCCCCCCCCCCCCCCOC[C@H]1C[C@H](COC(=O)N(Cc2cccc[n+]2CC)C(C)=O)O1 (relative stereo) [Example 2, trans-2-[[N-Acetyl-N-[[[4-[(hexadecyloxy)methyl]-2-oxetanyl]methoxy]carbonyl]amino]methyl]-1-ethyl-pyridinium iodide] | 93 | 0.057 | 0.0147 | 98 | 44 |
| CCCCCCCCCCCCCCCCCCNC(=O)OC[C@@H]1C[C@H](COC(=O)N(Cc2cccc[n+]2CC)C(C)=O)O1 (relative stereo) [Example 3, cis-2-[[N-Acetyl-N-[[[4-[[(octadecylcarbamoyl)oxy]methyl]-2-oxetanyl]methoxy]carbonyl]amino]methyl]-1-ethyl-pyridinium iodide] |  |  |  | 97 | 58 |
| CCCCCCCCCCCCCCCCCCNC(=O)OC[C@H]1C[C@H](COC(=O)N(Cc2cccc[n+]2CC)C(C)=O)O1 (relative stereo) [Example 5, trans-2-[[N-Acetyl-N-[[[4-[[(octadecylcarbamoyl)oxy]methyl]-2-oxetanyl]methoxy]carbonyl]amino]methyl]-1-ethyl-pyridinium iodide] |  |  |  | 97 |  |
| CCCCCCCCCCCCCCCCCCNC(=O)OCC1(COC(=O)N(Cc2cccc[n+]2CC)C(C)=O)COC1 [Example 6, 2-[[N-Acetyl-N-[[[3-[[(octadecylcarbamoyl)oxy]methyl]-3-oxetanyl]methoxy]carbonyl]amino]methyl]-1-ethyl-pyridinium iodide] | 96 |  |  | 98 |  |
| CCCCCCCCCCCCCCCCOCC1(COC(=O)CCCCC[n+]2ccccc2)COC1 [Example 10, N-[5-[[[3-[(Hexadecyloxy)methyl]-3-oxetanyl]methoxy]carbonyl]pentyl]pyridinium bromide] | 43 |  |  | 86 |  |
| CCCCCCCCCCCCCCCCCCNC(=O)OCC1(COC(=O)CCCCC[n+]2ccccc2)COC1 [Example 12, N-[5-[[[3-[[(Octadecylcarbamoyl)oxy]methyl]-3-oxetanyl]methoxy]carbonyl]pentyl]pyridinium bromide] | 58 |  |  | 94 |  |
| CCCCCCCCCCCCCCCCCCNC(=O)OCC1(COC(=O)CCCCC[n+]2ccsc2)COC1 [Example 13, 3-[5-[[[3-[[(Octadecylcarbamoyl)oxy]methyl]-3-oxetanyl]methoxy]carbonyl]pentyl]thiazolium bromide] |  | 0.382 | 0.0305 | 92 |  |
| CCCCCCCCCCCCCCCCCCNC(=O)OCC1(COC(=O)N(Cc2cccc[n+]2CC)C(C)=O)CCC1 [Example 14, 2-[[N-Acetyl-N-[[[1-[[(octadecylcarbamoyl)oxy]methyl]-1-cyclobutyl]methoxy]carbonyl]amino]methyl]-1-ethyl-pyridinium iodide] | 98 | 0.118 | 0.0066 | 99 | 18 |
